Experiments:
[1] = molecular target: T1, binding between HGF and c-Met (Homo sapiens, UniProt P14210); assay: ELISA-like HGF-c-Met binding assay on plate with immobilized recombinant c-Met; details: NC set to 1
T1 construct: purchased R&D Systems
Method: The effect of the addition of glutathione trisulfide (GSSSG) or lipoic acid trisulfide (LA-SSS) on the binding (affinity) between HGF and c-Met was examined by the following method. GSSSG or LA-SSS was added to recombinant HGF (R&D Systems) at a molar ratio of 1:4000 (HGF:GSSSG or HGF:LA-SSS) (FIG. 1(A)) or 1:8000 (HGF:GSSSG or HGF:LA-SSS) (FIG. 1(B)). An ELISA-like HGF-c-Met binding assay was performed using a 96-well cluster plate with immobilized recombinant c-Met (R&D Systems) (Tatsumni et al. 2002; the principle of this method is schematically shown in FIG. 1(C)). Table 2 and FIGS. 1(A) and (B) show the relative values of each experimental group, with the A450-535 nm (absorbance at 450 nm minus absorbance at 535 nm) of the negative control (NC) set to 1.
In Table 2 and FIG. 1, NC: negative control (no addition), PC: positive control (HGF only addition), PC′: addition of solvent used to dissolve GSSSG and HGF, A′: addition of solvent used to dissolve GSSSG, GSSSG, and HGF (1 ng/ml), A: addition of solvent used to dissolve GSSSG and GSSSG, PC″: addition of solvent used to dissolve LA-SSS and HGF, B′: addition of solvent used to dissolve LA-SSS, LA-SSS, and HGF (1 ng/ml), B: addition of solvent used to dissolve LA-SSS and LA-SSS.

[2] = test system: muscle stem cells (satellite cells); assay: Muscle stem cell (satellite cell) activation by HGF, BrdU pulse labeling; type: cell-based, rat; details: for Percentage of BrdU-positive cells (%): NC 46.9; for percentage of BrdU-positive cells / enhancing effect on muscle stem cell activation by HGF: HGF 3 ng/ml; for percentage of BrdU-positive cells: trisulfide at 4000 or 8000 moles per 1 mole HGF, vs. NC, p<0.05; for enhancing effect on muscle stem cell activation by HGF: trisulfide at 8000 moles per 1 mole HGF
Method: The effect of the addition of GSSSG or LA-SSS on the muscle stem cell activation effect of HGF (3 ng/ml) was examined by the following method. GSSSG or LA-SSS was added to recombinant HGF (R&D Systems) at a molar ratio of 1:4000 (HGF:GSSSG or HGF:LA-SSS) (FIG. 2(A)) or 1:8000 (HGF:GSSSG or HGF:LA-SSS) (FIG. 2(B)). The activation effect of HGF was measured using a culture system of muscle stem cells (satellite cells). Quiescent muscle stem cells were isolated from the skeletal muscle of 8-9-month-old mature rats in accordance with a modified method of Allen et al. (1997) (Tatsumi et al. 2006), and cultured for 24 hours in DMEM containing 10% normal horse serum (DMEM-10% HS, pH 7.2). HGF mixed with GSSSG or LA-SSS was added to a final concentration of 3 ng/ml, and after further culture for 24 hours, the activation rate of muscle stem cells was measured by the bromodeoxyuridine (BrdU) pulse labeling method. Cells that had incorporated BrdU were visualized with an anti-BrdU monoclonal antibody, and the percentage of positive cells was used as an indicator of muscle stem cell activation (Tatsumi et al. 1998).
In FIG. 2, NC: negative control (no addition), PC: positive control (HGF only addition), A′: addition of GSSSG and HGF (3 ng/ml), A: addition of GSSSG, B′: addition of LA-SSS and HGF (3 ng/ml), B: addition of LA-SSS.
The effect of the addition of GSSSG or LA-SSS on the muscle stem cell activation effect of HGF (1 ng/ml) was examined in the same manner as in Example 2, except that the final concentration of HGF was 1 ng/ml instead of 3 ng/ml.
In Table 3 and FIG. 4, NC: negative control (no addition), PC′: positive control (HGF (I ng/ml) only addition), A′: addition of GSSSG and HGF (I ng/ml), A: addition of GSSSG, B′: addition of LA-SSS and HGF (1 ng/ml), B: addition of LA-SSS, PC: positive control (HGF (3 ng/ml) only addition).

[3] = 1:4000 series, trisulfide and its solvent without HGF
[4] = 1:8000 series, trisulfide and its solvent without HGF
[5] = HGF:A,B molar ratio 1:4000 series, HGF 1 ng/mL present, PC′/PC″ = HGF plus solvent only
[6] = HGF:A,B molar ratio 1:8000 series, HGF 1 ng/mL present, PC′/PC″ = HGF plus solvent only
[7] = HGF 1 ng/ml present, trisulfide at 1:8000 molar ratio, PC′ = HGF 1 ng/ml only

T1 sequence (P14210 32-494 limits assumed): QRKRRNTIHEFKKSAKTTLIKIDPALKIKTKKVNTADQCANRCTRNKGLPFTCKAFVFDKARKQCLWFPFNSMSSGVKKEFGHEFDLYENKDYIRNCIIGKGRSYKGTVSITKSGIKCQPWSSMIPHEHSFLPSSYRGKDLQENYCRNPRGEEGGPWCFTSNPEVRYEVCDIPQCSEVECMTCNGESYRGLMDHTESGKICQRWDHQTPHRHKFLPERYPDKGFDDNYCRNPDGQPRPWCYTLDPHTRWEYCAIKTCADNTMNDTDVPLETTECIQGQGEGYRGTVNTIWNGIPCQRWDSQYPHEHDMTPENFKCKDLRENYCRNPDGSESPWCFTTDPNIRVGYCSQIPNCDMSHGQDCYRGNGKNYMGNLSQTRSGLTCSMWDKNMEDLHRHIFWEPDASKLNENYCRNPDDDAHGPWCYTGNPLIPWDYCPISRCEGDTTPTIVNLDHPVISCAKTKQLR

In the case of `N[C@@H](CCC(=O)N[C@@H](CSSSC[C@H](NC(=O)CC[C@H](N)C(=O)O)C(=O)NCC(=O)O)C(=O)NCC(=O)O)C(=O)O` [GSSSG, glutathione trisulfide], the “A450-535 um (Relative units) (Average value)” value (shortened to “A450-535 um (Relative units)”) [1, 3] is reported as 1.21 Relative units, the “A450-535 um (Relative units)” value [1, 4] is reported as 1.16 Relative units and the “A450-535 um (Relative units)” value [1, 5] is reported as “increased”. The “A450-535 um (Relative units)” value ([1]; HGF:A,B molar ratio 1:4000 series, HGF 1 ng/mL present, PC′/PC″ = HGF plus solvent only, listed as A′) was 9.67 Relative units, the “A450-535 um (Relative units)” value [1, 6] was “significantly increased” and the “A450-535 um (Relative units)” value ([1]; HGF:A,B molar ratio 1:8000 series, HGF 1 ng/mL present, PC′/PC″ = HGF plus solvent only, listed as A′) was 11.22 Relative units. For the same molecule, the “Percentage of BrdU-positive cells (%)” value [2, 7] was “increased”, the “Percentage of BrdU-positive cells (%)” value ([2]; HGF 1 ng/ml present, trisulfide at 1:8000 molar ratio, PC′ = HGF 1 ng/ml only, listed as A′) was 57.5% and the “percentage of BrdU-positive cells” value [2] was “significantly increased”. For the same molecule, the “enhancing effect on muscle stem cell activation by HGF” value [2] was “not observed” and the “Percentage of BrdU-positive cells (%)” value ([2]; trisulfide alone, without HGF) was 47.5%.
In the case of `O=C(O)CCCCC1CCSSS1` (stereo not drawn) [LA-SSS, lipoic acid trisulfide], the “A450-535 um (Relative units)” value [1, 3] is reported as 1.28 Relative units, the “A450-535 um (Relative units)” value [1, 4] is reported as 1.14 Relative units and the “A450-535 um (Relative units)” value [1, 5] is reported as “increased”. The “A450-535 um (Relative units)” value ([1]; HGF:A,B molar ratio 1:4000 series, HGF 1 ng/mL present, PC′/PC″ = HGF plus solvent only, listed as B') was 9.55 Relative units, the “A450-535 um (Relative units)” value [1, 6] was “significantly increased” and the “A450-535 um (Relative units)” value ([1]; HGF:A,B molar ratio 1:8000 series, HGF 1 ng/mL present, PC′/PC″ = HGF plus solvent only, listed as B′) was 19.60 Relative units. The “Percentage of BrdU-positive cells (%)” value [2, 7] was “significantly increased”, the “Percentage of BrdU-positive cells (%)” value ([2]; HGF 1 ng/ml present, trisulfide at 1:8000 molar ratio, PC′ = HGF 1 ng/ml only, listed as B′) was 64.2% and the “percentage of BrdU-positive cells” value [2] was “significantly increased”. The “enhancing effect on muscle stem cell activation by HGF” value [2] was “not observed” and the “Percentage of BrdU-positive cells (%)” value ([2]; trisulfide alone, without HGF) was 48.8%.
For “HGF: recombinant hepatocyte growth factor (R&D Systems); positive control, alone or with trisulfide solvent”, the “A450-535 um (Relative units)” value ([1]; HGF:A,B molar ratio 1:4000 series, HGF 1 ng/mL present, PC′/PC″ = HGF plus solvent only, listed as PC′) was 9.39 Relative units, the “A450-535 um (Relative units)” value ([1]; HGF:A,B molar ratio 1:4000 series, HGF 1 ng/mL present, PC′/PC″ = HGF plus solvent only, listed as PC″) was 9.00 Relative units and the “A450-535 um (Relative units)” value ([1]; HGF:A,B molar ratio 1:8000 series, HGF 1 ng/mL present, PC′/PC″ = HGF plus solvent only, listed as PC′) was 10.21 Relative units. The “A450-535 um (Relative units)” value ([1]; HGF:A,B molar ratio 1:8000 series, HGF 1 ng/mL present, PC′/PC″ = HGF plus solvent only, listed as PC″) was 10.04 Relative units, the “A450-535 um (Relative units)” value ([1]; positive control, HGF only addition) was 9.85 Relative units and the “Percentage of BrdU-positive cells (%)” value [2, 7] was “significantly increased”. The “Percentage of BrdU-positive cells (%)” value ([2]; HGF 1 ng/ml present, trisulfide at 1:8000 molar ratio, PC′ = HGF 1 ng/ml only, listed as PC′) was 55.3% and the “Percentage of BrdU-positive cells (%)” value ([2]; HGF 3 ng/ml only addition) was 65.9%.

Source: patent US20260240836A1, “ENHANCER OF PHYSIOLOGICAL ACTIVITY OF HEPATOCYTE GROWTH FACTOR” (KYOWA HAKKO BIO CO., LTD., priority 2023, published 2026)
